Data set [1] is described as follows: Apparent permeability in dog RRCK cells. To be noted: MDCK.
Data set [2] can be described thus: Apparent intrinsic clearance in human liver microsomes. On the technique in general: Liver microsomes are a subcellular fraction often used to study metabolism.
The nature of data set [3]: Octanol-neutral buffer partition co-efficient, log D of the compound at pH 7.4.
Data set [4] concerns Respiratory syncytial virus. The data set can be described thus: Antiviral activity against Respiratory syncytial virus A2 infected in A549 cells after 3 days by CelltitreGlo assay. The data set is classed as functional, organism-based. To be noted: human respiratory syncytial virus, A2, A549, 72 h.
Data set [5] is described as follows: Apparent permeability in MDCK cells selected for low expression of efflux transporters. Particulars: dog.
The next data set relates to Hepatocyte. As to the kind of experiment: Apparent intrinsic clearance in human hepatocytes assessed per million cells.
A short description of data set [6]: Intrinsic clearance in rat plasma.
The nature of data set [7]: Apparent intrinsic clearance in rat liver microsomes. Particulars: read-out: CLH(app). The data set is classed as ADME, Microsome.
A short description of data set [8]: Oral absorption in rat. The data set is classed as ADME, organism-based. Particulars: in vivo.
Another data set has as its system Liver microsomes. As to the kind of experiment: Apparent intrinsic clearance in rat liver microsomes assessed per mg protein.
Data set [9] in a line: Half life in iv dosed rat. To be noted: in vivo.
The nature of data set [10]: Volume of distribution in steady state in rat. Particulars: in vivo.
Data set [11] can be described thus: Drug excretion in rat urine. The data set is classed as ADME. Particulars: read-out: Drug excretion.
Data set [12] can be described thus: Oral bioavailability in rat. To be noted: in vivo.

pIC50: −log10 of the molar value.

A word on the Papp: it is the rate of passage across a membrane or cell layer, normalised by area and donor concentration. As a reminder, the logD is lipophilicity at a set pH, counting ionised and neutral species. High values mean a more lipophilic compound, low ones a more hydrophilic compound. As usually defined, the pIC50 is the IC50 on a negative log10 scale, so that one unit is a factor of ten. Read a low pIC50 as a large IC50. The CLint scaled is the rate of metabolic loss divided by the concentration. A word on the half-life: it is the time needed for the level to fall by half in the phase considered. High values mean slow loss, low ones fast loss. By Vd is commonly meant a proportionality between amount in the body and measured concentration, not a real space. The low end stands for little distribution into tissue, the high end for wide distribution into tissue. The term bioavailability denotes dose-corrected exposure relative to a reference, in per cent.

`COCc1cn(CCCCO)c(Cn2c(=O)n(C3CC3)c3ccncc32)n1`: in data set [1], the Papp is 1 ×10⁻⁶ cm/s. Moreover, in [2], the microsomal CLint was determined as 9 µL/min/mg. For the same compound, the logD in data set [3] came out at 0.2. The pIC50 in data set [4] is 5.22.

With `O=c1n(Cc2nc3c(n2CCCCO)CCCC3)c2cnccc2n1C1CC1`, the Papp in [1] came out at 4 ×10⁻⁶ cm/s. Besides, the microsomal CLint in data set [2] turned out to be 65 µL/min/mg. In data set [3], this compound showed a logD of 1.8. In addition, the pIC50 in data set [4] is 8.40.

For the compound `O=c1n(Cc2nc(Cl)c(Cl)n2CCCCO)c2cnccc2n1C1CC1`, the microsomal CLint in [2] is less than 8 µL/min/mg. The same compound yielded a logD in data set [3] of 2. Besides, in [4], the pIC50 was 6.96.

As to `COC(=O)c1nc(Cn2c(=O)n(C3CC3)c3ccncc32)n(CCCCO)c1C`, the Papp in data set [1] was 2 ×10⁻⁶ cm/s. Further, the microsomal CLint in [2] came to 9 µL/min/mg. The compound further came in with a logD in data set [3] of 0.8. In data set [4], the pIC50 was 4.91.

In data set [3], `CC(C)n1nc(Cn2nc3ccccc3c2CCCCO)c2ccccc21` displayed a logD of 4.4. The compound also showed a pIC50 in data set [4] of 6.66.

On to `CC(C)n1nc(Cn2nc3ccccc3c2OCCCO)c2ccccc21`, for which the microsomal CLint in data set [2] was 246 µL/min/mg. Further, the logD in data set [3] was determined as 3.5. Further, the Papp in data set [5] is 16 ×10⁻⁶ cm/s. In data set [4], this compound showed a pIC50 of 6.00.

Consider `CC(C)n1nc(Cn2nc3ccccc3c2OCCCCO)c2ccccc21`, for which the logD in data set [3] is 3.9. Further, the pIC50 in data set [4] is 7.19.

For `CC(C)n1nc(Cn2nc3ccccc3c2CCCO)c2ccccc21`, the microsomal CLint in data set [2] was found to be 78 µL/min/mg. This compound also returned a logD in data set [3] of 3.8. The Papp in data set [5] came out at 14 ×10⁻⁶ cm/s. This compound also had a pIC50 in data set [4] of 6.56.

Consider `CC(C)n1nc(Cn2c(=O)c3ccccc3n2CCCCO)c2ccccc21`, for which the microsomal CLint in [2] was 462 µL/min/mg. Further, in [3], the logD is 2.9. For the same compound, in data set [5], the apparent permeability (Papp) amounted to 32 ×10⁻⁶ cm/s. Moreover, the pIC50 in data set [4] is 6.77.

Consider `CC(C)n1nc(Cn2nc3c(c2CCCCO)CCCC3)c2ccccc21`, for which the microsomal CLint in data set [2] was more than 320 µL/min/mg. The same compound gave a logD in [3] of 3.6. The Papp in [5] stood at 12 ×10⁻⁶ cm/s. In data set [4], this compound had a pIC50 of 6.39.

In [3], `CC(C)n1nc(Cn2nc3ccccc3c2C(=O)NCCCO)c2ccccc21` returned a logD of 2.4. For the same compound, the pIC50 in [4] is 5.53.

`CC(C)n1nc(CCn2nc(CCCCO)c3ccccc32)c2cnccc21`: the microsomal CLint in data set [2] came to 242 µL/min/mg. The logD in [3] stood at 4.4. For the same compound, the Papp in data set [5] was determined as 8 ×10⁻⁶ cm/s. Besides, the pIC50 in [4] is 4.64.

Turning to `Cc1cc(CCn2cc(-c3cccnc3)nc2Cn2c(=O)n(C3CC3)c3ccncc32)no1`, the microsomal CLint in data set [2] was determined as 17 µL/min/mg. The same compound came in with a logD in [3] of 1.4. The Papp in data set [5] stood at 4 ×10⁻⁶ cm/s. In data set [4], this compound had a pIC50 of 6.86.

On to `Cc1ccc(CCn2cc(-c3cccnc3)nc2Cn2c(=O)n(C3CC3)c3ccncc32)cn1`, for which the microsomal CLint in data set [2] was found to be 32 µL/min/mg. Besides, the logD in data set [3] turned out to be 1.5. The Papp in data set [5] was 2 ×10⁻⁶ cm/s. For the same compound, the pIC50 in data set [4] is 7.02.

As for `Cc1cc(CCn2cc(-c3cccnc3)nc2Cn2c(=O)n(C3CC3)c3ccncc32)on1`, in data set [3], the logD worked out at 1.4. In addition, the Papp in [5] was found to be 3 ×10⁻⁶ cm/s. Besides, the pIC50 in data set [4] is 7.39.

With `Cc1ncc(CCn2cc(-c3cccnc3)nc2Cn2c(=O)n(C3CC3)c3ccncc32)o1`, the microsomal CLint in data set [2] was 10 µL/min/mg. Also, the logD in data set [3] is 0.9. Further, the pIC50 in data set [4] is 5.65.

Regarding `O=c1n(Cc2nc(-c3cccnc3)cn2CCCCO)c2cnccc2n1C1CC1`, the microsomal CLint in data set [2] is less than 8 µL/min/mg; in data set [7], 44 µL/min/mg. Besides, the “CLH(app)” value in the data set on Hepatocyte was less than 2.2 µL/min. In addition, the CLint scaled in data set [6] is 95 mL/min/kg. In data set [3], this compound displayed a logD of 1.2. In data set [5], the Papp came out at 4 ×10⁻⁶ cm/s. For the same compound, the negative logarithm of the IC50 (pIC50) in data set [4] was 6.58.

Turning to `Cn1nccc1-c1cn(CCCCO)c(Cn2c(=O)n(C3CC3)c3ccncc32)n1`, the microsomal CLint in data set [2] is less than 8 µL/min/mg. Moreover, the logD in data set [3] stood at 0.9. In [4], the pIC50 was less than 4.70.

Regarding `O=c1n(Cc2nc(-c3ncccn3)cn2CCCCO)c2cnccc2n1C1CC1`, the microsomal CLint in [2] is less than 8 µL/min/mg. The “CLH(app)” value in the data set with Hepatocyte was less than 2.2 µL/min. Further, the logD in [3] turned out to be 0.6. Besides, the apparent permeability (Papp) in data set [5] was determined as 1 ×10⁻⁶ cm/s. The same compound gave a pIC50 in data set [4] of 6.63.

Regarding `O=c1n(Cc2nc(-c3ccccn3)cn2CCCCO)c2cnccc2n1C1CC1`, the microsomal CLint in [2] was less than 8 µL/min/mg. Further, the “CLH(app)” value in the data set with Hepatocyte was less than 2.2 µL/min. In addition, the logD in data set [3] came out at 1.4. Further, the Papp in data set [5] was found to be 5 ×10⁻⁶ cm/s. The pIC50 in data set [4] is 6.63.

As to `Cn1ccnc1-c1cn(CCCCO)c(Cn2c(=O)n(C3CC3)c3ccncc32)n1`, the microsomal CLint in [2] was less than 8 µL/min/mg. In data set [3], this compound registered a logD of 0.8. The same compound gave a pIC50 in data set [4] of 4.98.

With `O=c1n(Cc2nc(-c3nccs3)cn2CCCCO)c2cnccc2n1C1CC1`, the Papp in [1] and in [5] was 4 ×10⁻⁶ cm/s throughout. Moreover, in data set [8], the Fa was more than 60%. For the same compound, the microsomal CLint in data set [2] was less than 8 µL/min/mg. In addition, the entries for the “CLH(app)” value in the data set with Hepatocyte and in the data set on Liver microsomes were less than 2.2 µL/min and 21.1 µL/min, respectively. In data set [6], the CLint scaled came out at 48 mL/min/kg. The compound further showed a half-life in data set [9] of 1.5 h. For the same compound, in data set [10], the Vd turned out to be 3.5 L/kg. Moreover, the log distribution coefficient (logD) in data set [3] stood at 1.3. Also, the dose excreted in [11] came to 16%. In data set [12], this compound showed a bioavailability of 34%. The pIC50 in data set [4] is 7.24.

With `O=c1n(Cc2nc(-c3ncco3)cn2CCCCO)c2cnccc2n1C1CC1`, the microsomal CLint in data set [2] was less than 8 µL/min/mg. The compound also registered a logD in data set [3] of 0.6. Besides, the pIC50 in [4] is 7.02.

For `Cc1nnc(-c2cn(CCCCO)c(Cn3c(=O)n(C4CC4)c4ccncc43)n2)s1`, in data set [2], the microsomal CLint is less than 8 µL/min/mg. This compound had a logD in [3] of 0.9. The pIC50 in [4] is 5.29.

Regarding `COC(=O)N1CCC(n2c(=O)n(Cc3nc4ccccc4n3CCCCO)c3ccccc32)CC1`, in data set [1], the Papp was 36 ×10⁻⁶ cm/s. For the same compound, the microsomal CLint in data set [2] amounted to 44 µL/min/mg. Moreover, the logD in [3] turned out to be 3.4. Also, in data set [4], the pIC50 was 9.30.

On to `COC(=O)N1CCC(n2c(=O)n(Cc3nc(C)c(C)n3CCCCO)c3cnccc32)CC1`, for which the Papp in data set [1] is 1 ×10⁻⁶ cm/s. In addition, the microsomal CLint in data set [2] was 15 µL/min/mg. In addition, the logD in data set [3] was -0.5. The compound further had a pIC50 in [4] of 7.26.

With `COC(=O)N1CCC(n2ccc(Cc3nc4ccccc4n3CCCCO)n2)CC1`, the Papp in [1] was 6 ×10⁻⁶ cm/s. Moreover, in data set [2], the microsomal CLint came out at 110 µL/min/mg. The same compound gave a logD in data set [3] of 2. In [4], this compound gave a pIC50 of less than 4.85.

Turning to `CC(=O)N1CCC(Cn2nc3ccccc3c2CCCCO)CC1`, in data set [1], the Papp was 2 ×10⁻⁶ cm/s. Also, the microsomal CLint in data set [2] amounted to 11 µL/min/mg. The same compound yielded a logD in data set [3] of 1.5. The compound further gave a pIC50 in data set [4] of less than 4.70.

In the case of `O=c1n(Cc2nc3ccccc3n2CCCCO)c2cnccc2n1C1CC1`, in [4], the pIC50 is 7.89.

For the origin of these results see ChEMBL document CHEMBL2331263, “Non-benzimidazole containing inhibitors of respiratory syncytial virus” (Bioorg Med Chem Lett, 2013).
